# Assay results: patent publication EP3298025B1, “NEW AMINO ACID SEQUENCES WITH MI[…] DERIVED FROM NAJA ATRA CARDIOTOXIN 1 (CTX-1)” (Università degli Studi di Parma, priority 2015, dated 2016)
# No end group written: not given here.
# Assays:
# [1] = test system: epithelial MDBK cells (Madin Darby Bovine Kidney); assay: cytotoxicity against eukaryotic cells, Trypan Blue; format: cell-based; conditions: overnight incubation
# Procedure: Peptides cytotoxicity against epithelial MDBK cells (Madin Darby Bovine Kidney) was determined using cell cultures of about 5x10^5 cells/ml with and without peptides, with overnight incubation at 37°C with CO2. The negative control was in medium without peptide; positive control was in medium with 0.2% of Triton x100, to completely lyse cells. Cells vitality was assessed adding every well with 20 µl of Trypan Blue, incubating other 5 minutes at 37°C. MCC10 was the minimal peptide concentration with 10% of cytotoxicity.
# Mutton RBCs = assay: haemolysis test; format: cell-based; conditions: maximum concentration 100 µg/ml; 1 hour at room temperature
# Procedure: Mutton RBCs, sampled immediately before the test, were washed with isotonic buffer to obtain clear supernatant. The washed RBCs were incubated with different peptide concentrations for 1 hour at room temperature. After this the solution was centrifuged and the haemolysis in the supernatant quantified with a spectrophotometer at 450 nm. The positive control was RBC lysed with 0,1% of Tryton. The sample determined the maximal optical density. The haemolysis percentage was calculated as sample optical density at 450 nm and positive control optical density ratio. MHC10 was the minimal peptide concentration able to lyse 10% of RBC.
# [2] = at 40 µg / ml; cited from earlier work
Sequence,Cytotoxicity: cell number percentage reduction in comparison with control ([1]; peptide 12.5 µg/ml) [%],Cytotoxicity: cell number percentage reduction in comparison with control ([1]; peptide 100 µg/ml) [%],haemolytic effect (Mutton RBCs) [%],hemolysis [2]
KLIWILSKTIPAIKNLFYKI [NCP-3],3,7,< 10,
KLIPILSKTIPAIKNLFYKI [NCP-2],3,5,< 10,
KFFKFFKFFK [synthetic peptide consisting of cationic lysine residues and hydrophobic phenylalanine residues],,,,severely hemolytic
